# Laboratory results taken from patent US11207430B2, “Gadolinium expressed lipid nanoparticles for magnetic resonance imaging” (University of Washington, priority 2009, dated 2021).
# Entries after “also recorded” stand apart in the source; their conditions may differ.
# Columns and labels:
# [1] = clinical use; cited from earlier work
# lymph nodes = assay: Primate lymphatic MRI study (DCE MRI after subcutaneous injection); type: in vivo, M. Nemestrina; conditions: animals injected subcutaneously
# Procedure: In vivo imaging of the lymph nodes using Gd-DTPA-lipid nanoparticles for dynamic contrast enhanced (DCE) MRI was performed in a 1.5T MR scanner. The pigtailed macaque (M. Nemestrina) was anesthetized with inhaled isofluorane (1-2%) and closely monitored during the experiments. A pre-contrast image of the primate was recorded to determine proper lymph node location and fine-tune the imaging parameters. The animal was removed from the MR scanner and injected subcutaneously at four sites. […] The total dose of Gd is estimated to be 24.4 μmol/kg for the primate studies.
# vasculature = assay: Rat vascular MRI study (DCE MRI after intravenous injection); type: in vivo; conditions: 0.01 mmol/kg nanoparticles or 0.05 mmol/kg OMNISCAN, 5 min and 14-15 min
# Procedure: In vivo imaging of the rat using Gd-DTPA-lipid nanoparticles for dynamic contrast enhanced (DCE) MRI was performed in a 3.0T MR scanner. The rats (SD) was anesthetized with inhaled isofluorane (1-2%) and closely monitored during the experiments. A pre-contrast image of the rat was recorded to determine proper location, orientation and fine-tune the imaging parameters. The animal was removed from the MR scanner and injected with […] of indicated Gd contrast media through femoral vein. The images were recorded on a Signa […] Scanner using a surface coil 12×12 inch.
smiles,measurement,setting,value
"CNC(=O)CN(CCN(CCN(CC(=O)[O-])CC(=O)NC)CC(=O)[O-])CC(=O)[O-].[Gd+3] [OMNISCAN, Gd-DTPA-BMA]",Clearance time,[1],cleared within a few minutes
same,Time within which signal in lymphatic system dissipates,lymph nodes,≤ 20 min
same,Localization of contrast enhancement,vasculature,"diffused throughout and does not localize in the vasculature, well-perfused tissues, or the lymph nodes; also recorded: diffuse contrast localization with no vascular definition"
